Experimental data taken from patent US20210353648A1, “GRAPIPRANT UNIT DOSAGE FORMS” (Arrys Therapeutics, Inc., priority 2018, published 2021).

Experiments:
[1] = Phase 1 multiple ascending dose study of grapiprant tablets: safety and tolerability
Description: Study Design: This was a randomized, investigator-blind, subject-blind, sponsor-open, placebo controlled, sequential parallel-group, multiple ascending dose study of grapiprant tablets.
Safety Evaluations: Safety evaluations included clinical monitoring, adverse events (AEs), clinical laboratory tests including renal function tests, bone markers (serum bone-specific alkaline phosphatase and osteocalcin and urinary N-terminal telopeptide of type I collagen), vital signs (heart rate and blood pressure), and 12-lead ECGs.
Safety Analyses: Safety data are presented in tabular and/or graphical format and summarized descriptively.
Bone markers were analyzed as percentage change from baseline and the influence of potential outliers was assessed.

[2] = Phase 1 crossover food effect study of 375 mg grapiprant tablets: safety; format: in vivo, human; conditions: for subjects with treatment-emergent adverse events / treatment-emergent adverse events: 12 subjects
Procedure: This study was a randomized, open-label, single dose, 2-period crossover design. Each subject participated in 2 study periods. In each study period, subjects received a dose of 375 mg administered as 3×125 mg tablets of grapiprant under fasted or fed conditions in a crossover manner according to a randomized dosing sequence. The fed condition consisted of a standardized high-fat meal. Following an initial screening period of no longer than 28 days, 12 eligible subjects were to be randomized to the 2 treatment sequences and 2 treatment period sessions as shown in Table 6-1.
All subjects were evaluated for safety, which was assessed by adverse events either spontaneously reported or elicited by non-leading questions from study staff, clinical observations, safety laboratory tests, vital signs, 12-lead ECGs, concomitant medication assessment, physical examination, and fecal occult blood tests.

[3] = Phase 1 single ascending dose study of grapiprant OPC: safety and tolerability; format: in vivo
Procedure: Eligible subjects were to be enrolled into 8 sequential cohorts, corresponding to the planned dose levels of 1 mg, 3 mg, 10 mg, 30 mg, 100 mg, 300 mg, 600 mg, and 1000 mg. […] After determining a maximum tolerated dose (MTD), or after completing the highest dose cohort if a MTD was not determined, Cohort 11 would be enrolled to increase the number of subjects evaluated at the MTD (or the highest dose).
In each dosing period, subjects were confined to the Clinical Research Unit (CRU) for approximately 60 hours (from approximately 36 hours predose through 24 hours postdose), and were instructed to return to the study site at 48 hours postdose for collection of blood samples for safety and pharmacokinetic evaluations. Subjects had triplicate ECG measurements made at select time-points on Day 0 (to provide a time-matched baseline) and through 24 hours postdose. Continuous cardiac monitoring by telemetry was performed for 12 hours postdose (or up to 24 hours, if warranted, based on the pharmacokinetic data). Creatine phosphokinase (CPK; total CPK and CPK-MB isoenzyme) and troponin I levels were monitored predose and at 12 and 24 hours postdose. In each dosing period, blood samples were collected predose and at 0.5, 1, 1.5, 2, 2.5, 3, 4, 6, 8, 12, 16, 24, and 48 hours postdose for pharmacokinetic evaluation. Fecal occult blood was monitored predose and through 48 hours postdose. Urine was collected through 24 hours postdose for exploratory biotransformation analyses. Since grapiprant may be a substrate of efflux transporters, genotyping for P-gp, an efflux transporter, was also planned for this study.
Safety: All subjects were evaluated for safety. Subjects were queried regarding adverse events (AEs) at 24 hours prior to dosing, 0 hours predose (baseline), and 1, 2, 4, 8, and 12 hours postdose. A limited physical examination, clinical laboratory tests, and fecal occult blood test were performed 24 hours prior to dosing. Vital signs measurements and 12-lead ECGs were performed in triplicate (approximately 2 minutes apart) at specified intervals in the 24 hours before dosing, 0 hours (predose), and at 0.5, 1, 1.5, 2, 3, 4, 8, and 12 hours postdose. Continuous cardiac telemetry monitoring was started at 1 hour postdose and continued for 12 hours postdose Fecal occult blood was monitored for 48 hours postdose.

CCc1nc2c(C)nc(C)cc2n1-c1ccc(CCNC(=O)NS(=O)(=O)c2ccc(C)cc2)cc1 [Grapiprant, N-((4-(2-ethyl-4,6-dimethyl-1H-imidazo[4,5-c]pyridin-1-yl)phenethyl)carbamoyl)-4-methylbenzenesulfonamide]
AEs reported ([1]; 50 mg BID, healthy subjects): 7 AEs
subjects reporting AEs ([1]; 50 mg BID, healthy subjects (9 treated)): 4 subjects
AEs reported ([1]; 150 mg BID, healthy subjects): 23 AEs
subjects reporting AEs ([1]; 150 mg BID, healthy subjects (9 treated)): 7 subjects
AEs reported ([1]; 250 mg BID, elderly subjects): 44 AEs
subjects reporting AEs ([1]; 250 mg BID, elderly subjects (15 treated)): 14 subjects
tolerability ([1]; 250 mg BID, elderly subjects with mild renal impairment): well tolerated
AEs reported ([1]; 300 mg BID, healthy subjects): 13 AEs
subjects reporting AEs ([1]; 300 mg BID, healthy subjects (9 treated)): 6 subjects
deaths ([1]; all cohorts): No deaths
severity of most treatment-emergent AEs ([1]; all cohorts): mild
vital signs and ECGs ([1]; all cohorts): no clinically significant mean changes from baseline
systolic blood pressure ([1]; elderly subjects with mild renal impairment, 250 mg BID, versus placebo group): small increase from baseline
laboratory safety tests, including renal function tests ([1]; grapiprant versus placebo): no clinically significant findings
systolic blood pressure ([1]; healthy subjects, doses up to 300 mg BID, triplicate BP monitoring): no difference between changes from baseline compared with placebo
tolerability ([1]; multiple-dose administration for 14 days, doses up to 300 mg BID, healthy adult subjects): well tolerated
withdrawal due to AE ([1]; one elderly subject, 250 mg BID): non-drug related AE of ventricular tachycardia
serious AEs considered related to the study medication ([1]; one healthy subject, 150 mg BID): decreased hemoglobin, decreased hematocrit, and gastrointestinal hemorrhage
subjects with treatment-emergent adverse events ([2]; 375 mg tablet-fasted treatment): 5 subjects
treatment-emergent adverse events ([2]; 375 mg tablet-fasted treatment): 7 events
subjects with treatment-emergent adverse events ([2]; 375 mg tablet-fed treatment): 4 subjects
treatment-emergent adverse events ([2]; 375 mg tablet-fed treatment): 5 events
intensity of adverse events ([2]; 375 mg, after both treatments): mild in intensity
QTc ([2]; 375 mg, fasted and fed): no subjects had maximum QTc increases from baseline of ≥30 msec
clinical laboratory tests or vital sign measurements ([2]; 375 mg, fasted and fed): No subjects had clinically significant changes from baseline
deaths, serious adverse events, withdrawals ([2]; 375 mg, fasted and fed): no deaths, serious adverse events, or withdrawals due to adverse events
tolerability ([2]; 375-mg dose of tablets, fasted and fed conditions, healthy adults): well-tolerated
subjects reporting abdominal pain ([3]; 30 mg): 1 subject
SAEs ([3]; 1 subject at 600 mg (not related), 1 each at 1500 mg and 2000 mg): Three subjects experienced SAEs
subjects reporting abdominal pain ([3]; 1500 mg): 2 subjects
incidence of AEs ([3]; 1500 mg treatment group): 4 of 6 subjects
subjects reporting abdominal pain ([3]; 2000 mg): 4 subjects
incidence of AEs ([3]; 2000 mg treatment group): 5 of 6 subjects
serum creatinine and BUN (COSTART term: acute renal failure) ([3]; 2 subjects, 1 each at 1500 mg and 2000 mg): mild, treatment-related elevations in serum creatinine and BUN
subjects experiencing AEs ([3]; 26 of the 61 subjects treated, single doses 1 mg to 2000 mg): 43%
deaths or discontinuations due to AEs ([3]; all dose levels): No deaths or discontinuations due to AEs
fecal occult blood ([3]; all dose levels): No positive results for fecal occult blood tests
vital signs measurements, cardiac telemetry, ECG parameters ([3]; all dose levels): No clinically important, study drug-related changes
subjects with treatment-related abdominal pain ([3]; among the 12 subjects who received 1500 or 2000 mg): 6 subjects
tolerability ([3]; single doses ranging from 1 mg to 1000 mg): generally well tolerated
